The text below walks through data of patent US20250161453A1, “LIGHT-ACTIVATABLE, SUSTAINED-EXPOSURE ETHANOL INJECTION” (University of Maryland, College Park, priority 2022, published 2025).

A short description of data set [1]: Singlet oxygen production (Singlet Oxygen Sensor Green) in phantom punch biopsies. As to conditions: 20 μM. As for the experimental part:
For the tumor-mimicking mechanical phantom, 5 mm-deep portions of the phantom were removed via a biopsy tool with a diameter of 6.4 mm and placed into a 96-well, clear flat-bottom microplate. Singlet oxygen production was determined using Singlet Oxygen Sensor Green (SOSG) and a microplate reader before irradiation. The SOSG fluorescence was measured with excitation/emission wavelengths of 504/525 nm. The samples were then irradiated with a 690 nm continuous-wave laser at various radiant exposures, and singlet oxygen production was measured using SOSG and the microplate reader after irradiation. The difference between the obtained SOSG fluorescence values between pre- and post-irradiance samples constituted the relative singlet oxygen production of that particular punch biopsy sample.
Table 4 details a strategy for measuring the singlet oxygen production of a sample (e.g., phantom specimen from a punch biopsy). […] 0 μM (EC-Ethanol only), phantom only, and BPD only (dissolved in DMSO) groups were included as negative controls, while the Rose Bengal group (type II photosensitizer capable of generating singlet oxygen via 525 nm light absorption) was included as a positive control. This strategy can be applied to estimate the relative production of singlet oxygen of photosensitizers in other liquid needle injections.
Upon red light (690 nm) activation of BPD-EC-EtOH, the fluorescence signal generated from BPD can be used for imaging of the depot, as shown in FIG. 6E.

The nature of data set [2]: Stability of BPD stock solution. It is filed as physicochemical. As to conditions: 5 mg BPD powder in 1 mL dimethyl sulfoxide, wrapped in aluminum foil. On the procedure: To prepare the BPD stock solution, 5 mg of the BPD powder was dissolved with 1 mL of dimethyl sulfoxide in a 2 mL cryovial container. The molarity of the sample was confirmed with a microplate reader using the established molar extinction coefficient of BPD in dimethyl sulfoxide (DMSO; ˜34,895 M^−1 cm^−1 at 687 nm). The container was wrapped in aluminum foil and stored in a −20° C. freezer.

With `O=C([O-])c1c(Cl)c(Cl)c(Cl)c(Cl)c1-c1c2cc(I)c(=O)c(I)c-2oc2c(I)c([O-])c(I)cc12.[Na+].[Na+]` [Rose Bengal], in data set [1] (SOSG fluorescence 504/525 nm), the “Post-irradiation RFU” value was 64703 RFU and the “Pre-irradiation RFU” value is 18345 RFU. The “Relative singlet oxygen production (SOSG fluorescence difference)” value in data set [1] (difference post- minus pre-irradiation) came to 46358 RFU.
Turning to benzoporphyrin derivative [BPD], the “stability of reconstituted stock solution (in words)” value in data set [2] was “generally stable at −20 °C for several months”.
